Publication PMC8915576 (Frontiers in Pain Research, 2021)
Where two headings read alike, the source gives them in different places.

How the values were obtained:
VACCs in DRG neurons = experiment: Voltage-dependent component of agonist-VACC inhibition (high-voltage pre-pulse); assay type: cell-based, mouse; conditions: normalized to each agonist's inhibition
[1] = molecular target: FAP-tagged MOPr in HEK cells (Homo sapiens, UniProt P35372); experiment: cell-based; assay type: cell-based; conditions: for Emax: Emax (% background), internalization
Sequence of FAP-tagged MOPr in HEK cells (P35372 whole entry): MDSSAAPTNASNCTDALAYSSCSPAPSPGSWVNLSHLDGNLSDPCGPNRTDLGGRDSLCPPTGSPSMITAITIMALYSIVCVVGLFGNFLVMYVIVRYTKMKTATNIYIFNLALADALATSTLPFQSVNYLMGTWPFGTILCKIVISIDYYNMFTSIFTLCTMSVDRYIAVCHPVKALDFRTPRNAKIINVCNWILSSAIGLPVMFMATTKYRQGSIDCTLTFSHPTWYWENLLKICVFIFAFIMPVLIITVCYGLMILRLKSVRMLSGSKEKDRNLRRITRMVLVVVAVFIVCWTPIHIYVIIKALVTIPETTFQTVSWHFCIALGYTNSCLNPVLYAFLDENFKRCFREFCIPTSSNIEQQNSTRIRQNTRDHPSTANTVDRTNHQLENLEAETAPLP

[2] = molecular target: MOPr (mMOR-Venus) / Gαi-luciferase (Mus musculus, UniProt P42866); experiment: cell-based; assay type: cell-based
Sequence of MOPr (mMOR-Venus) / Gαi-luciferase (P63096 whole entry): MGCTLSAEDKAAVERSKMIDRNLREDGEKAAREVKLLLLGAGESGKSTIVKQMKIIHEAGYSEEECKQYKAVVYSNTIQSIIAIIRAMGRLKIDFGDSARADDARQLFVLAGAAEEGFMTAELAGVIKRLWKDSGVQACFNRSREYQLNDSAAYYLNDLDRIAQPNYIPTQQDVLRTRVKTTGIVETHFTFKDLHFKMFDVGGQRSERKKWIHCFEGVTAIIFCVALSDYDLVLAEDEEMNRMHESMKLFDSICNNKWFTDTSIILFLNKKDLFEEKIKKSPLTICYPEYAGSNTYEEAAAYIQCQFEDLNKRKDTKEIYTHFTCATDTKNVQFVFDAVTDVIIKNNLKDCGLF
Sequence of MOPr (mMOR-Venus) / Gαi-luciferase (P42866 whole entry): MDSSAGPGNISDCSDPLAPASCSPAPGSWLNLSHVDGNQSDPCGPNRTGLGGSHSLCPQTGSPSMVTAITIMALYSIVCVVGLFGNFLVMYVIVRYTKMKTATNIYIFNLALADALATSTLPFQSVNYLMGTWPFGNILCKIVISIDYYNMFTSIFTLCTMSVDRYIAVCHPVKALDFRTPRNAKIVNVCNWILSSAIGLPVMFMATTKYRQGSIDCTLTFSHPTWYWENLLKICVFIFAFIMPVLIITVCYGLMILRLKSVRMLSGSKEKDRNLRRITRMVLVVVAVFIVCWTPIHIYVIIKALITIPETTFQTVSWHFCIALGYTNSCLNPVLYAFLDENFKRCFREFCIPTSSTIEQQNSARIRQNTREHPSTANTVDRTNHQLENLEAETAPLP
Sequence of MOPr (mMOR-Venus) / Gαi-luciferase (P59768 whole entry, further chain): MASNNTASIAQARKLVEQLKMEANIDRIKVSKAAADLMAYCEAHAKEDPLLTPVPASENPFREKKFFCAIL
Sequence of MOPr (mMOR-Venus) / Gαi-luciferase (P62873 whole entry, further chain): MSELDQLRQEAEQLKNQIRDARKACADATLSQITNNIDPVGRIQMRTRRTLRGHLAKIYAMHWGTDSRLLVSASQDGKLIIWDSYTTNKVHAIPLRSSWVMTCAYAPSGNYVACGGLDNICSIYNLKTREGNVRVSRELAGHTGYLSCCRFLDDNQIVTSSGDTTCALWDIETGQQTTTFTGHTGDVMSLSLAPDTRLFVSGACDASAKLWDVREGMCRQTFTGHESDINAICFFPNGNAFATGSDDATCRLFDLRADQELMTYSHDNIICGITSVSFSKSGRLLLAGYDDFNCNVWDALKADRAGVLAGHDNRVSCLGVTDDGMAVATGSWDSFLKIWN

[3] = molecular target: MOPr (mMOR-Venus) / βarr2-luciferase (Mus musculus, UniProt P42866); experiment: cell-based
Sequence of MOPr (mMOR-Venus) / βarr2-luciferase (P32121 whole entry): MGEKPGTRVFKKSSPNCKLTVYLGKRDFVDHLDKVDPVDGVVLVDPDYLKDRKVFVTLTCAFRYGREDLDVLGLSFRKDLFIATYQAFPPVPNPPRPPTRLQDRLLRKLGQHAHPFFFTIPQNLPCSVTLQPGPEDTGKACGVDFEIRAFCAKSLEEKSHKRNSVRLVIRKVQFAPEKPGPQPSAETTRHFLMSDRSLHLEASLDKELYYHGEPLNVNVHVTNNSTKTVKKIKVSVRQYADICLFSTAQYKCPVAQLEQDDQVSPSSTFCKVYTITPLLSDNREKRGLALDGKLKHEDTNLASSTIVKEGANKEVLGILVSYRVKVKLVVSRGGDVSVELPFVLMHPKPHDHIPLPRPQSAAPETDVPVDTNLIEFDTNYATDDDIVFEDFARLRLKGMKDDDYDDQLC
Sequence of MOPr (mMOR-Venus) / βarr2-luciferase (P42866 whole entry): as the sequence (P42866 whole entry) above

[4] = molecular target: MOPr (mMOR-Venus) / βarr1-luciferase (Mus musculus, UniProt P42866); experiment: cell-based; assay type: cell-based
Sequence of MOPr (mMOR-Venus) / βarr1-luciferase (P42866 whole entry, one chain of several): as the sequence (P42866 whole entry) above

[5] = test system: MOPr-VACC inhibition in DRG neurons; assay type: cell-based, mouse
[6] = test system: MOPr-VACC inhibition in dorsal root ganglia (DRG) neurons; experiment: cells; assay type: cell-based, mouse; conditions: for IC50: read-out: IC50, VACC inhibition; for Emax: read-out: Emax (% inhibition), VACC inhibition
MOPr = molecular target: T1, MOPr (Mus musculus, UniProt P42866); assay type: cell-based
T1 construct: expressed in transfected cells; host or cells: HEK293
T1 sequence (P42866 whole entry): as above

drug-seeking behavior = experiment: Intravenous self-administration (IVSA), FR10 schedule; assay type: in vivo, Sprague–Dawley rats; conditions: for number of reinforcers obtained vs saline: FR10, rats
thermal nociception = experiment: Thermal withdrawal thresholds (Hargreaves) after i.pl. vehicle; assay type: in vivo, mouse; conditions: 3 mg/kg i.pl., mice
[7] = molecular target: T2, MOR (recombinant human receptor) (Homo sapiens, UniProt P35372); assay type: binding; conditions: calculated as t1/2 = 0.69/koff
T2 construct: host or cells: CHO-K1 membranes
T2 sequence (P35372 whole entry): as the sequence (P35372 whole entry) above

[8] = test system: carrageenan-induced place aversion; experiment: Carrageenan-induced conditioned place aversion; assay type: in vivo, mouse; conditions: 1 mg/kg i.pl., male mice
[9] = test system: carrageenan-induced thermal hyperalgesia; experiment: Thermal withdrawal thresholds (Hargreaves) after i.pl. carrageenan; assay type: in vivo, mouse
drug preference = experiment: Conditioned place preference in pain-naive mice; assay type: in vivo, mouse
[10] = test system: VACCs in DRG neurons lacking βarr1; experiment: VACC inhibition in DRG neurons of βarr1-knockout mice; assay type: cell-based, mouse; conditions: βarr1-knockout vs WT DRG neurons; NKTR-181 30 μM
[11] = molecular target: Mu opioid receptor (MOPr) of the competitive binding assays (UniProt P42866)
Sequence of Mu opioid receptor (MOPr) of the competitive binding assays (P42866 whole entry, the tested form may be a part): as the sequence (P42866 whole entry) above

[12] = molecular target: T3, mMOR-Venus (mu opioid receptor, Venus-tagged) (mouse (from the label mMOR), UniProt P42866 1-398); experiment: FRET or BRET; live HEK293 cells co-transfected with mMOR-Venus (acceptor) and Renilla Luciferase8-tagged β-arrestin-1, β-arrestin-2 or Gαi (donor; Gαi with untagged Gβγ fusion); agonist added at 0 nM-100 μM (DAMGO, NKTR-181, oxycodone, morphine, fentanyl); coelenterazine h 4.5 μM; 30°C; netBRET as percent of the maximum DAMGO response, four-parameter fit; conditions: partners not purified
T3 construct: mu opioid receptor (MOPr), printed as mMOR; BRET acceptor; 'm' in mMOR is read as mouse; also called MOPr-venus; MOPr; source: HEK293, transfected (FuGENE 6), in live cells
T3 sequence (P42866 whole entry, the tested form may be a part): as the sequence (P42866 whole entry) above

C[C@@H](NC(=O)[C@@H](N)Cc1ccc(O)cc1)C(=O)NCC(=O)N(C)[C@@H](Cc1ccccc1)C(=O)NCCO [DAMGO, [D-Ala^2, N-MePhe^4, Gly-ol]-enkephalin]
voltage-dependent component of VACC inhibition (VACCs in DRG neurons): predominantly inhibit VACCs by a voltage-dependent mechanism
Emax ([1]; HEK293, read-out: 30 min): 78 ± 6%
Emax ([1]; HEK293, read-out: 60 min): 72 ± 7%
σ (transduction coefficient), Gαi recruitment [2]: 0
σ (transduction coefficient), β-arr2 recruitment [3]: 0
σ (transduction coefficient), β-arr1 recruitment [4]: 0
rapid desensitization (loss of VACC inhibition) [5]: greater desensitization than NKTR-181
Emax (% inhibition), VACC inhibition [6]: 41 ± 4 % inhibition
IC50 [6]: 0.228 µM
Bias factor Gαi vs βarr1 (MOPr): Unbiased
Bias factor Gαi vs βarr2 (MOPr): Unbiased
Bias factor βarr1 vs βarr2 (MOPr): Unbiased

CN1CC[C@]23c4c5ccc(O)c4O[C@H]2[C@@H](O)C=C[C@H]3[C@H]1C5 [Morphine, morphine]
voltage-dependent component of VACC inhibition (VACCs in DRG neurons): predominantly inhibit VACCs by a voltage-dependent mechanism
rapid desensitization (loss of VACC inhibition) [5]: greater desensitization than NKTR-181
Emax ([6]; Mus musculus, DRG neuron): 33 ± 6%

COc1ccc2c3c1O[C@H]1C(=O)CC[C@@]4(O)[C@@H](C2)N(C)CC[C@]314 [Oxycodone, oxycodone]
voltage-dependent component of VACC inhibition (VACCs in DRG neurons): predominantly inhibit VACCs by a voltage-dependent mechanism
MOPr internalization, dose-dependence and comparison [1]: did not result in a dose-dependent effect and could not be curve-fitted at any timepoint
number of reinforcers obtained vs saline (drug-seeking behavior; 0.1 mg/kg/infusion): no difference
number of reinforcers obtained vs saline (drug-seeking behavior; 0.01 and 0.032 mg/kg/infusion): higher
total amount of drug infused over the hour-long session (drug-seeking behavior; across the three doses of each drug, rats): increase in the total amount of drug infused across all doses
thermal withdrawal thresholds following i.pl. vehicle (thermal nociception): increased withdrawal thresholds following i.pl. vehicle
EC50 [2]: 0.355 µM
σ (transduction coefficient), Gαi recruitment [2]: 0.006 ± 0.07
Emax ([2]; HEK293, read-out: Emax, Gαi recruitment): 62.5 ± 0.9%
dissociation half-life t1/2 [7]: 1.25 min
EC50 [3]: 0.1 µM
σ (transduction coefficient), β-arr2 recruitment [3]: −0.17 ± 0.05
carrageenan-induced place aversion [8]: prevented place aversion
reversal of carrageenan-induced hyperalgesia ([9]; 1 mg/kg i.pl., mice): did not reverse carrageenan-induced hyperalgesia
thermal withdrawal thresholds following i.pl. carrageenan ([9]; 3 mg/kg i.pl., mice): increased withdrawal thresholds following i.pl. carrageenan
time to reach peak levels of effect ([9]; antinociception / anti-hyperalgesia, carrageenan model, 10 min was the earliest timepoint measured): 10 min
sex difference in anti-hyperalgesia ([9]; higher dose (oxycodone 3 mg/kg, NKTR-181 100 mg/kg), male vs female mice): No sex differences were evident
EC50 [4]: 0.389 µM
σ (transduction coefficient), β-arr1 recruitment [4]: 0.07 ± 0.05
Emax ([4]; HEK293, read-out: Emax, β-arr1 recruitment): 63.9 ± 0.8%
conditioned place preference (drug preference; 1 mg/kg i.pl.): did not produce a place preference in either male or female mice
conditioned place preference (drug preference; 3 mg/kg i.pl.): produced a place preference in both sexes
requirement of βarr1 for full VACC inhibition [10]: require βarr1 to obtain full VACC inhibition
rapid desensitization (loss of VACC inhibition) [5]: limited desensitization
Emax ([6]; Mus musculus, DRG neuron): 34 ± 10%
IC50 ([6]; Mus musculus, DRG neuron): 1.7 µM
Bias factor Gαi vs βarr1 (MOPr): −0.14 ± 0.07
Bias factor Gαi vs βarr2 (MOPr): 0.17 ± 0.08
Bias factor βarr1 vs βarr2 (MOPr): 0.32 ± 0.06

[D-Ala^2, N-MePhe^4, Gly-ol]-enkephalin (peptide)
Emax (% inhibition) of VACCs in cultured adult mouse DRG neurons, whole-cell patch clamp [11]: 41 % inhibition
IC50 of inhibition of voltage-activated calcium channel currents (VACCs) in cultured adult mouse DRG neurons, whole-cell patch clamp [11]: 0.228 µM

B1: β-arrestin-1-Renilla Luciferase8 (natural protein, UniProt P49407 1-418, looked up)
chain: MGDKGTRVFKKASPNGKLTVYLGKRDFVDHIDLVDPVDGVVLVDPEYLKERRVYVTLTCAFRYGREDLDVLGLTFRKDLFVANVQSFPPAPEDKKPLTRLQERLIKKLGEHAYPFTFEIPPNLPCSVTLQPGPEDTGKACGVDYEVKAFCAENLEEKIHKRNSVRLVIRKVQYAPERPGPQPTAETTRQFLMSDKPLHLEASLDKEIYYHGEPISVNVHVTNNTNKTVKKIKISVRQYADICLFNTAQYKCPVAMEEADDTVAPSSTFCKVYTLTPFLANNREKRGLALDGKLKHEDTNLASSTLLREGANREILGIIVSYKVKVKLVVSRGGLLGDLASSDVAVELPFTLMHPKPKEEPPHREVPENETPVDTNLIELDTNDDDIVFEDFARQRLKGMKDDKEEEEDGTGSPQLNNR
notes: β-arrestin-1; BRET donor; also called βarr1; β-arr1; source: HEK293, transfected (FuGENE 6), in live cells
LogEC50 of the agonist DAMGO for the recruitment [12]: -6.94 ± 0.09 log M
LogEC50 of the agonist NKTR-181 for the recruitment [12]: -6.45 ± 0.12 log M
LogEC50 of the agonist fentanyl for the recruitment [12]: -8 ± 0.12 log M
LogEC50 of the agonist morphine for the recruitment [12]: -6.3 ± 0.18 log M
LogEC50 of the agonist oxycodone for the recruitment [12]: -6.41 ± 0.12 log M
